Among the test systems are COLO 205 colon; DU-145 prostate; M14 melanoma; MOLT-4 leukemia; NCI-H23 lung; NCI-H460 lung; SK-OV-3 ovarian; SNB-75 CNS; TK-10 renal; HL-60(TB) leukemia.
Common to all, as to assay: NCI-60 cell line screen, 48 h

Where “and” joins values, the source holds several entries; their conditions need not be identical. Equal entries are not always repeated.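 A five-concentration, 48-hour dose response in 96-well plates underlies each endpoint, interpolated linearly between surrounding concentrations. GI50 marks 50% less growth. TGI: concentration producing complete growth inhibition.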 A value given as a limit tells only on which side of the number the result lay.

On to `Cc1ccccc1OC(C)C(=O)NN1C(=O)CSC1c1ccccc1` (stereo unspecified), for which the TGI is > 100 µM in the experiment with COLO 205 colon; > 100 µM with DU-145 prostate; > 100 µM with M14 melanoma; 25.3 µM with MOLT-4 leukemia; > 100 µM with NCI-H23 lung; > 100 µM in the experiment on NCI-H460 lung. Besides, the TGI in the experiment on SK-OV-3 ovarian, with SNB-75 CNS and with TK-10 renal was > 100 µM in each case.

As for `Nc1nc(SCCC/C=C/I)nc2c1ncn2C1OC(COP(=O)(O)O)C(O)C1O` (stereo unspecified), the TGI with COLO 205 colon, in the experiment with HL-60(TB) leukemia, in the experiment with M14 melanoma, in the experiment with MOLT-4 leukemia, with NCI-H23 lung and in the experiment with NCI-H460 lung was > 100 µM throughout. Further, the TGI in the experiment with SK-OV-3 ovarian, in the experiment on SNB-75 CNS and in the experiment on TK-10 renal was > 100 µM each time.

As to `O=C1C=C[C@@H](COC2OC(CO)C(O)C(O)C2O)O1` (stereo partly specified), the GI50 with COLO 205 colon was 3.44 µM; in the experiment on HL-60(TB) leukemia it was 2.75 µM; in the experiment on NCI-H23 lung it was 5.12 µM; in the experiment on NCI-H460 lung, 3.68 µM. The TGI in the experiment with COLO 205 colon is 14.4 µM and 19.5 µM; in the experiment on HL-60(TB) leukemia it was 15.4 µM and 5.22 µM; in the experiment on MOLT-4 leukemia, 21.1 µM and 48.6 µM; in the experiment with NCI-H23 lung, 19.2 µM and 29.7 µM; with NCI-H460 lung, 14.8 µM and 32.3 µM; in the experiment on SK-OV-3 ovarian, > 100 µM. In addition, the TGI with SNB-75 CNS is 29.7 µM and 31.8 µM.

In the case of `CC(=O)Nn1c(=S)[nH]c2ccccc21`, the TGI with COLO 205 colon, in the experiment on DU-145 prostate, in the experiment with HL-60(TB) leukemia, in the experiment with M14 melanoma, in the experiment with MOLT-4 leukemia and in the experiment with NCI-H23 lung was > 100 µM each time. The TGI with NCI-H460 lung, in the experiment on SK-OV-3 ovarian and in the experiment with TK-10 renal was > 100 µM each time.

With `O=C(c1ccccn1)C1(N2CCCCC2)CCCCC1`, the TGI with COLO 205 colon, with DU-145 prostate, with HL-60(TB) leukemia, with M14 melanoma, in the experiment with MOLT-4 leukemia and in the experiment with NCI-H23 lung was > 100 µM throughout. In addition, the TGI in the experiment on SK-OV-3 ovarian and in the experiment on TK-10 renal was > 100 µM in each case.

`CC1(C)O[C@H]2OC(CO[Si](C)(C)C(C)(C)C)C(N=[N+]=[N-])[C@H]2O1` (stereo partly specified): the TGI in the experiment on HL-60(TB) leukemia worked out at 23.1 µM; in the experiment with M14 melanoma, 43.9 µM; with MOLT-4 leukemia it was 33.9 µM; in the experiment with NCI-H23 lung, 39 µM; with NCI-H460 lung, 43.7 µM; in the experiment with SK-OV-3 ovarian, 28.3 µM. In addition, the TGI in the experiment with SNB-75 CNS was 59.3 µM; with TK-10 renal, 36.7 µM.

Regarding `N#C/C(=C1/Sc2c(nc[nH]c2=O)N1c1ccccc1)c1nc2ccccc2[nH]1`, the TGI with COLO 205 colon, in the experiment with HL-60(TB) leukemia, with M14 melanoma, in the experiment with MOLT-4 leukemia, in the experiment on NCI-H23 lung and with NCI-H460 lung was > 100 µM in each case. For the same compound, the TGI with SK-OV-3 ovarian, in the experiment on SNB-75 CNS and with TK-10 renal was > 100 µM in each case.

Take `Cc1ccc(NC(=O)CC2Sc3ccccc3NC2=O)cc1C` (stereo unspecified): the TGI is > 100 µM in the experiment on COLO 205 colon; 66.1 µM with HL-60(TB) leukemia; > 100 µM in the experiment on M14 melanoma; > 100 µM with MOLT-4 leukemia; > 100 µM with NCI-H23 lung; > 100 µM in the experiment with NCI-H460 lung. Besides, the TGI in the experiment on SK-OV-3 ovarian, in the experiment on SNB-75 CNS and in the experiment on TK-10 renal was > 100 µM each time.

With `Oc1ccc(-c2nc3ccc(Br)cc3s2)cc1`, the TGI is 33.7 µM with COLO 205 colon; 36.7 µM with DU-145 prostate; 56.3 µM with HL-60(TB) leukemia; 39.6 µM in the experiment on M14 melanoma; > 100 µM in the experiment on MOLT-4 leukemia; 76 µM with NCI-H23 lung. The figures for the TGI with NCI-H460 lung, with SK-OV-3 ovarian and with TK-10 renal were 52.8 µM, 51.4 µM and 35.9 µM, respectively.

As to `CC1CN(C)c2ccccc2N=C1NN` (stereo unspecified), the TGI with COLO 205 colon, in the experiment with DU-145 prostate, with HL-60(TB) leukemia, in the experiment on M14 melanoma, in the experiment on MOLT-4 leukemia and with NCI-H23 lung was > 100 µM in each case. Moreover, the TGI in the experiment on NCI-H460 lung, with SK-OV-3 ovarian and with TK-10 renal was > 100 µM in each case.

`Nc1c(S(=O)(=O)O)cc2cc(S(=O)(=O)O)ccc2c1N=Nc1ccc(-c2ccc(N=Nc3c(N)c(S(=O)(=O)O)cc4cc(S(=O)(=O)O)ccc34)c(S(=O)(=O)O)c2)cc1`: the TGI in the experiment on COLO 205 colon is > 100 µM; with HL-60(TB) leukemia it was > 100 µM; in the experiment with MOLT-4 leukemia it was > 100 µM; with NCI-H23 lung, > 100 µM; in the experiment on NCI-H460 lung it was > 31.6 µM; in the experiment with SK-OV-3 ovarian, > 100 µM. The TGI in the experiment on SNB-75 CNS was > 100 µM.

Turning to `C=CC1(CC/C(=C\[N+](=O)[O-])c2ccc(OC)c(OC)c2)OCC(C)(C)CO1`, the TGI in the experiment with COLO 205 colon was 43.4 µM; in the experiment with DU-145 prostate, 33.1 µM; in the experiment with HL-60(TB) leukemia it was 34.1 µM; with M14 melanoma it was 39.6 µM; in the experiment on MOLT-4 leukemia, 6.05 µM; with NCI-H23 lung, 37 µM. Further, the results for the TGI with NCI-H460 lung, with SK-OV-3 ovarian and in the experiment with TK-10 renal were 55 µM, 60.4 µM and 34.6 µM, respectively.

As for `O=c1[nH]c(=S)[nH]c2c1C(c1ccc([N+](=O)[O-])cc1)c1c([nH]c(=S)[nH]c1=O)O2`, the TGI in the experiment on COLO 205 colon, in the experiment with DU-145 prostate, in the experiment with HL-60(TB) leukemia, with M14 melanoma, in the experiment with MOLT-4 leukemia and with NCI-H23 lung was > 100 µM each time. In addition, the TGI in the experiment with NCI-H460 lung and with TK-10 renal was > 100 µM throughout.

On to `COc1ccc(/C=c2\sc3n(c2=O)CCN=3)cc1`, for which the TGI in the experiment on HL-60(TB) leukemia, with M14 melanoma, in the experiment on MOLT-4 leukemia, in the experiment with NCI-H23 lung, with NCI-H460 lung and in the experiment on SK-OV-3 ovarian was > 100 µM throughout. Moreover, the TGI in the experiment with SNB-75 CNS and in the experiment on TK-10 renal was > 100 µM throughout.

Turning to `CCCCOC(=O)Nc1ccc(S(=O)(=O)Nc2ccccc2Cl)cc1`, the TGI is 45.2 µM in the experiment with COLO 205 colon; > 100 µM in the experiment with DU-145 prostate; 59.5 µM with HL-60(TB) leukemia; 37.7 µM with M14 melanoma; 51.5 µM in the experiment with MOLT-4 leukemia; 77.7 µM with NCI-H23 lung. The TGI with NCI-H460 lung was determined as 40.1 µM; with SK-OV-3 ovarian, 33.8 µM; in the experiment with TK-10 renal it was 46.6 µM.

For `Oc1ccc2c(c1)c1c(n2CCN2CCOCC2)-c2ccccc2CC1`, the TGI in the experiment on HL-60(TB) leukemia is > 100 µM; in the experiment with M14 melanoma it was 57.3 µM; in the experiment with MOLT-4 leukemia, > 100 µM; with NCI-H23 lung, 82.1 µM; in the experiment on NCI-H460 lung, 44.2 µM; in the experiment with SK-OV-3 ovarian, > 100 µM. The TGI with SNB-75 CNS is 76.3 µM; in the experiment on TK-10 renal it was 77.9 µM.

As to `Cc1ccccc1C(=N)c1ccccc1Cc1cccc2ccccc12`, the TGI in the experiment on COLO 205 colon was 76.9 µM; in the experiment with DU-145 prostate it was 42.5 µM; with HL-60(TB) leukemia it was 42.2 µM; in the experiment with M14 melanoma, > 100 µM; in the experiment on MOLT-4 leukemia, 42.3 µM; in the experiment with NCI-H23 lung, > 100 µM. In addition, the TGI in the experiment on NCI-H460 lung was 38.6 µM; in the experiment on SK-OV-3 ovarian, 98.9 µM; in the experiment on TK-10 renal it was > 100 µM.

`O=C(/C=C/c1ccc2c(c1)OCO2)Cc1nc2ncccc2[nH]c1=O`: the TGI in the experiment with COLO 205 colon, in the experiment with DU-145 prostate, in the experiment on HL-60(TB) leukemia, in the experiment with M14 melanoma, in the experiment with MOLT-4 leukemia and with NCI-H23 lung was > 100 µM each time. Moreover, the TGI in the experiment on NCI-H460 lung, with SK-OV-3 ovarian and in the experiment with TK-10 renal was > 100 µM each time.

Take `COc1ccc(CN2C(=O)/C(=C\c3cc(OC)c(OC)c(OC)c3)c3ccccc32)cc1`: the GI50 was 1.89 µM in the experiment with COLO 205 colon; 2.32 µM with DU-145 prostate; 2.41 µM with M14 melanoma; 2.35 µM with NCI-H23 lung; 2.08 µM with NCI-H460 lung; 4.08 µM in the experiment with SNB-75 CNS. Moreover, the GI50 in the experiment on TK-10 renal is 1.14 µM. Further, the TGI was 3.44 µM in the experiment on COLO 205 colon; 6.98 µM in the experiment on DU-145 prostate; 5.48 µM in the experiment on M14 melanoma; 6.43 µM with NCI-H23 lung; 4.09 µM in the experiment on NCI-H460 lung; > 100 µM with SNB-75 CNS. The TGI in the experiment on TK-10 renal stood at 4.33 µM.

For `c1ccc2c3[nH]c(c2c1)=Nc1ccc(cc1)-c1nc2cc(ccc2o1)N=c1[nH]c(c2ccccc12)=Nc1ccc2nc(oc2c1)-c1ccc(cc1)N=3`, the TGI in the experiment with COLO 205 colon, in the experiment with DU-145 prostate, in the experiment on HL-60(TB) leukemia, in the experiment with M14 melanoma, with MOLT-4 leukemia and in the experiment with NCI-H23 lung was > 100 µM each time. Moreover, the TGI in the experiment with NCI-H460 lung is > 100 µM.

On to `COC(=O)[C@@H](O)[C@](O)(CCC(C)C)C(=O)O[C@@H]1C(OC)=C[C@]23CCCN2CCc2cc4c(cc2[C@H]13)OCO4`, for which the TGI with COLO 205 colon was found to be 2.99 µM; in the experiment with HL-60(TB) leukemia it was 2.96 µM; in the experiment with MOLT-4 leukemia, 6.97 µM; with NCI-H23 lung, 5.7 µM; in the experiment on NCI-H460 lung, 1.7 µM; in the experiment with SK-OV-3 ovarian it was 8.12 µM. In the experiment on SNB-75 CNS, the TGI came out at 14.1 µM.

`N[C@@H](CCC(=O)NCP(=O)(O)O)C(=O)O`: the TGI in the experiment with COLO 205 colon, in the experiment on HL-60(TB) leukemia, with MOLT-4 leukemia, with NCI-H23 lung, with NCI-H460 lung and in the experiment on TK-10 renal was > 100 µM in each case.

Source of the values: PubChem BioAssay (NCI).
